From ChEMBL document CHEMBL1126389, “Synthesis and anti-HIV activity of 3-deoxy-3-(N-hydroxyamino) analogues of nucleosides” (Bioorg Med Chem Lett, 1992)
Calls of active or inactive are those of the source. The rule behind the calls is not given here.

What was measured:
[1] = system: Human immunodeficiency virus 1; assay: Inhibitory concentration against HIV-1 was determined; type: functional, organism-based
[2] = system: Human immunodeficiency virus 1; assay: Effective concentration against HIV-1 was determined; type: functional, organism-based
oncovirus = assay: Compound was evaluated for the antiviral activity against model oncovirus SV 40; A - Marginal activity was found; type: functional
[3] = system: Human immunodeficiency virus 1; assay: Compound was evaluated for the inhibitory activity against HIV-1; IA - Inactive; type: functional, organism-based

Compound | IC50 [1] | EC50 [2] | Activity (oncovirus) | Activity [3]
Cc1cn(C2CC3C(COCN3O)O2)c(=O)[nH]c1=O (stereo unspecified) | > 210000 nM | 2500 nM |  | 
Cc1cn(C2CC(N(C)O)C(CO)O2)c(=O)[nH]c1=O (stereo unspecified) |  |  | A | 
Cc1cn(C2CC(N(O)Cc3ccccc3)C(CO)O2)c(=O)[nH]c1=O (stereo unspecified) |  |  | A | inactive
Cc1cn([C@H]2C[C@](C#N)(N(C)O)[C@@H](CO[Si](C)(C)C(C)(C)C)O2)c(=O)[nH]c1=O |  |  | A | 
